For three compounds, MIC, Activity and inhibition results are on record in ChEMBL document CHEMBL3758102, “Serrulatane Diterpenoid from Eremophila neglecta Exhibits Bacterial Biofilm Dispersion and Inhibits Release of Pro-inflammatory Cytokines from Activated Macrophages” (J Nat Prod, 2015).

Assay [1] has as its system Staphylococcus epidermidis. In words: Antibacterial activity against Staphylococcus epidermidis ATCC 35984 incubated overnight by broth microdilution method. Format: functional. On the technique in general: In broth dilution the organism is exposed to a series of concentrations in liquid medium.
For assay [2], the system named is Staphylococcus epidermidis. Put plainly: Antibiofilm activity against Staphylococcus epidermidis ATCC 35984 assessed as inhibition of 3 to 6 hrs pre-established biofilm formation at 0.064 umol/well after 20 hrs by safranin staining-based method. Format: functional, organism-based.
Assay [3] deals with Staphylococcus epidermidis. Put plainly: Antibiofilm activity against Staphylococcus epidermidis ATCC 35984 assessed as inhibition of 12 hrs pre-established biofilm formation at 0.064 umol/well after 20 hrs by safranin staining-based method. It is filed as functional, organism-based.
Assay [4] has as its system Staphylococcus epidermidis. In words: Antibiofilm activity against Staphylococcus epidermidis ATCC 35984 assessed as inhibition of 24 hrs pre-established biofilm formation at 0.064 umol/well after 20 hrs by safranin staining-based method. Format: functional, organism-based.
Assay [5] deals with Staphylococcus epidermidis. Put plainly: Antibiofilm activity against Staphylococcus epidermidis ATCC 35984 assessed as 3 hrs pre-established biofilm viable cell count after 20 hrs (reference value: 1 x 10^10 CFU/ml). Format: functional.
For assay [6], the system named is Staphylococcus epidermidis. Put plainly: Antibiofilm activity against Staphylococcus epidermidis ATCC 35984 assessed as 6 hrs pre-established biofilm viable cell count after 20 hrs (reference value: 8.3 x 10^9 CFU/ml). It is filed as functional.
Assay [7] relates to Staphylococcus epidermidis. In words: Antibiofilm activity against Staphylococcus epidermidis ATCC 35984 assessed as 12 hrs pre-established biofilm viable cell count after 20 hrs (reference value: 1.2 x 10^10 CFU/ml). Format: functional.
Assay [8] has as its system Staphylococcus epidermidis. In words: Antibiofilm activity against Staphylococcus epidermidis ATCC 35984 assessed as 24 hrs pre-established biofilm viable cell count after 20 hrs (reference value: 1.4 x 10^10 +/- 2.6 x 10^9 CFU/ml). Format: functional.
Assay [9] relates to Staphylococcus epidermidis. Put plainly: Antibiofilm activity against Staphylococcus epidermidis ATCC 35984 assessed as reduction in 12 hrs pre-established biofilm viable cell count after 20 hrs (reference value: 1.2 x 10^10 CFU/ml). Format: functional.
Assay [10] has as its system Staphylococcus epidermidis. Put plainly: Antibiofilm activity against Staphylococcus epidermidis ATCC 35984 assessed as inhibition of 12 hrs pre-established biofilm formation at 0.064 umol/well after 20 hrs by visible spectrometric analysis. Format: functional, organism-based.
The subject of assay [11] is Staphylococcus epidermidis. In words: Antibiofilm activity against Staphylococcus epidermidis ATCC 35984 assessed as inhibition of 24 hrs pre-established biofilm formation at 0.064 umol/well after 20 hrs by visible spectrometric analysis. It is filed as functional, organism-based.
For assay [12], the system named is Staphylococcus epidermidis. Put plainly: Antibiofilm activity against Staphylococcus epidermidis ATCC 35984 assessed as killing of biofilm in 12 hrs pre-established biofilm at 0.064 umol/well after 20 hrs by fluorescence staining-based confocal microscopic analysis. It is filed as functional, organism-based.
In assay [13] the test system is BMDM. In words: Inhibition of TNFalpha production in C57Bl/6 mouse BMDM cells at 1.6 to 6.4 uM pretreated prior to LPS-stimulation measured on day 7 by ELISA. It is filed as functional, cell-based. As to conditions: C57BI/6. On the technique in general: ELISA stands for enzyme-linked immunosorbent assay.
Assay [14] concerns BMDM. In words: Inhibition of IL-6 production in C57Bl/6 mouse BMDM cells at 1.6 to 6.4 uM pretreated prior to LPS-stimulation measured on day 7 by ELISA. It is filed as functional, cell-based. Particulars: C57BI/6.
Assay [15] concerns BMDM. Put plainly: Inhibition of IL-1beta production in C57Bl/6 mouse BMDM cells at 1.6 to 6.4 uM pretreated for 1 hr prior to ATP-stimulation by ELISA. Format: functional, cell-based. Particulars: C57BI/6.

Activity calls are given as the source filed them. The rule behind the calls is not given here.

As a reminder, the MIC is the lowest concentration found to suppress growth. Take `C[C@H]1COc2c(N3CCN(C)CC3)c(F)cc3c(=O)c(C(=O)O)cn1c23.C[C@H]1COc2c(N3CCN(C)CC3)c(F)cc3c(=O)c(C(=O)O)cn1c23.O` [LEVOFLOXACIN]: the MIC in assay [1] is 0.66 µM. For the same compound, the outcome in assay [2] and in [12] was Active. The result in assay [3] and in assay [4] was inactive. Further, the Activity came out at 0 CFU/ml in [5]; 0 CFU/ml in assay [6]; 8 ×10³ CFU/ml in assay [7]; 2.2 ×10⁶ CFU/ml in [8]; 7 log10CFU/ml in assay [9]. Besides, the inhibition result in [10] and in [11] was “Active” in each case.

For `C[C@]12CCC(=O)C=C1CC[C@@H]1[C@@H]2[C@@H](O)C[C@@]2(C)[C@H]1CC[C@]2(O)C(=O)COC(=O)CCC(=O)O`, the inhibition entry in assay [13] and in [14] was “Active” in each case. The inhibition entry in assay [15] is “inactive”.

For the compound `N=C(NCCCCCCNC(=N)NC(=N)Nc1ccc(Cl)cc1)NC(=N)Nc1ccc(Cl)cc1` [CHLORHEXIDINE], in assay [2], the outcome was inactive. The result in assay [3], in assay [4] and in [12] was Active. The Activity is reported as 0 CFU/ml in assay [5]; 0 CFU/ml in assay [6]; 4 ×10³ CFU/ml in [7]; 1.3 ×10⁶ CFU/ml in [8]; 7 log10CFU/ml in assay [9]. The inhibition entry in assay [10] and in assay [11] was “Active” in each case.
